In experiment [1] the target is T1, human LXR alpha (GST-LXRα-LBD) (Homo sapiens, UniProt Q13133).
T1 construct: human LXR alpha (aa 164 to 447); made in house; host or cells: E. coli BL21 (pLysS)
T1 sequence (Q13133 164-447): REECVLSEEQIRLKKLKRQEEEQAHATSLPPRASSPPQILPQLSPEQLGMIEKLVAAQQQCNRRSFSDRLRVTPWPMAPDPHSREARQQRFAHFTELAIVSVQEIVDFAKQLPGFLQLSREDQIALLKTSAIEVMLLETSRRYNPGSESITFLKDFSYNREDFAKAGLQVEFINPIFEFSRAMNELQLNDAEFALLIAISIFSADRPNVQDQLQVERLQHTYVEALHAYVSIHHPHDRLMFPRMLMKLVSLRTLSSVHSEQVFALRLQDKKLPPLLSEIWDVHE
Briefly: Radioligand binding assay (SPA), LXR alpha. To be noted: GST-LXRα-LBD on SPA beads, read-out: LXRalpha Binding IC50. The method, then:
The following tests were carried out in order to determine the activity of the compounds of the present invention. Background information on the performed assays can be found in: Nichols J S et al. “Development of a scintillation proximity assay for peroxisome proliferator-activated receptor gamma ligand binding domain”, Anal Biochem. 1998, 257: 112-119.
Mammalian expression vectors were constructed to express full-length human LXR alpha and LXR beta. Bacterial expression vectors were constructed to produce glutathione-s-transferase (GST) fused to the ligand binding domains (LBD) of human LXR alpha (aa 164 to 447) and human LXR beta (aa 155 to 460). To accomplish this, the portions of the sequences encoding the LBDs were amplified from full-length clones by PCR and then subcloned into the plasmid vectors. Final clones were verified by DNA sequence analysis (Willy et al., Genes Dev. 1995, 9:1033-45; Song et al., Proc Natl Acad Sci USA. 1994, 91:10809-13).
Induction, expression, and purification of GST-LBD fusion proteins were performed in E. coli strain BL21 (pLysS) cells by standard methods (Ref: Current Protocols in Molecular Biology, Wiley Press, edited by Ausubel et al).
LXR alpha and LXR beta receptor binding were assayed in buffer consisting of 50 mM HEPES, pH 7.4, 10 mM NaCl, 5 mM MgCl2. For each 96-well reaction, 500 ng of GST-LXRα-LBD or 700 ng of GST-LXR beta-LBD fusion proteins were bound to 80 μg or 40 μg SPA beads (Pharmacia Amersham) respectively, in a final volume of 50 μl by shaking. The resulting slurry was incubated for 1 h at RT and centrifuged for 2 min at 1300×g. The supernatant containing unbound protein was removed, and the semi-dry pellet containing the receptor-coated beads was re-suspended in 50 μl of buffer. […] All binding assays were performed in 96-well plates and the amount of bound ligand was measured on a Packard TopCount using OptiPlates (Packard). Dose response curves were measured within a range of concentration from 10^−10 M to 10^−4 M.

The target of experiment [2] is T2, human LXR beta (GST-LXR beta-LBD) (Homo sapiens, UniProt P55055).
T2 construct: human LXR beta (aa 155 to 460); made in house; host or cells: E. coli BL21 (pLysS)
T2 sequence (P55055 155-460): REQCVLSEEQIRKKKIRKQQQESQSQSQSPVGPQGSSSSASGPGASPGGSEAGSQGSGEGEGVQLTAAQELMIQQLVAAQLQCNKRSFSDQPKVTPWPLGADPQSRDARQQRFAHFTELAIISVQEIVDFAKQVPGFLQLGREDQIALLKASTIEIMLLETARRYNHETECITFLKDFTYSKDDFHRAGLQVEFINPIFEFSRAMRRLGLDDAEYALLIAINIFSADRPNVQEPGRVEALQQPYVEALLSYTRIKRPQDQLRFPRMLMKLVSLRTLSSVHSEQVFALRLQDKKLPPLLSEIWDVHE
Briefly: Radioligand binding assay (SPA), LXR beta. The note with it: GST-LXR beta-LBD on SPA beads, read-out: LXRbeta Binding IC50. The procedure:
The following tests were carried out in order to determine the activity of the compounds of the present invention.
Mammalian expression vectors were constructed to express full-length human LXR alpha and LXR beta. […] To accomplish this, the portions of the sequences encoding the LBDs were amplified from full-length clones by PCR and then subcloned into the plasmid vectors.
LXR alpha and LXR beta receptor binding were assayed in buffer consisting of 50 mM HEPES, pH 7.4, 10 mM NaCl, 5 mM MgCl2. […] The resulting slurry was incubated for 1 h at RT and centrifuged for 2 min at 1300×g. The supernatant containing unbound protein was removed, and the semi-dry pellet containing the receptor-coated beads was re-suspended in 50 μl of buffer. Radioligand (eg. 100,000 dpm of (N-(2,2,2-trifluoroethyl)-N-[4-(2,2,2-trifluoro-1-hydroxy-1-trifluoromethylethyl)-phenyl]-benzenesulfonamide)) was added, and the reaction incubated at RT for 1 h in the presence of test compounds, and then scintillation proximity counting was performed. All binding assays were performed in 96-well plates and the amount of bound ligand was measured on a Packard TopCount using OptiPlates (Packard). Dose response curves were measured within a range of concentration from 10^−10 M to 10^−4 M.

For `CCN(Cc1cscn1)c1ccc(C(O)(C(F)(F)F)C(F)(F)F)cc1Cl` [Example 18, 2-{3-chloro-4-[ethyl-(thiazol-4-ylmethyl)-amino]-phenyl}-1,1,1,3,3,3-hexafluoro-propan-2-ol], in experiment [1], the IC50 is 17 nM. For `CCN(Cc1ccccc1)c1ccc(C(O)(C(F)(F)F)C(F)(F)F)cc1` [Example 1, 2-[4-(benzyl-ethyl-amino)-phenyl]-1,1,1,3,3,3-hexafluoro-propan-2-ol], the half-inhibitory concentration (IC50) in experiment [1] is 46 nM.

Take `CCN(Cc1nc(-c2cccc(C(=O)OC)c2)oc1C)c1ccc(C(O)(C(F)(F)F)C(F)(F)F)cc1` [Example 30, 3-[4-({ethyl-[4-(2,2,2-trifluoro-1-hydroxy-1-trifluoromethyl-ethyl)-phenyl]-amino}-methyl)-5-methyl-oxazol-2-yl]-benzoic acid methyl ester]: the values for the concentration for half-maximal inhibition (IC50) in experiment [1] and in experiment [2] were 2.7 nM and 5.7 nM, respectively.

A word on the IC50: it is the point on the concentration scale where inhibition reaches its midpoint.

The values above are taken from US7897815B2, “Hexafluoroisopropanol derivatives” (Hoffmann-La Roche Inc., priority 2004, dated 2011).
